From patent publication US20050101595A1, “N-containing cycloalkyl-substituted amino-thiazole derivatives and pharmaceutical compositions for inhibiting cell proliferation and methods for their use” (PFIZER INC., priority 2003, published 2005)
Where a name gives a salt, the structure may show the parent alone. Read-outs that look alike come from different tables or passages of the source.

Columns and labels:
[1] = system: HCT-116 cell line; experiment: Inhibition of cell growth, tetrazolium salt (MTT) assay; type: cell-based; details: for IC50: Homo sapiens, HCT-116, 120 h, MTT, three to five days, read-out: HCT-116 IC50; for HCT-116 % Inhibition at 0.25 μM: 0.25 μM compound
How it was run: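 Growth inhibition by MTT reduction at 540 nm (0.2 mg/mL, 4 h at 37° C, formazan dissolved in DMSO), normalized to cells given only 0.5% v/v DMSO. HCT-116 cultures in McCoy's 5A were dosed 4 h post-plating and kept three to five days at 37° C, 5% CO2.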

[2] = molecular target: human CDK4 and genetically truncated (1-264) cyclin D3 (Homo sapiens, UniProt P11802); experiment: Inhibition of CDK4/Cyclin D Retinoblastoma Kinase Activity; type: biochemical; details: for Ki: apparent Ki, CDK4/truncated cyclin D3, Rb fragment substrate, 25 μM ATP
human CDK4 and genetically truncated (1-264) cyclin D3, sequence (P11802 whole entry, the tested form may be a part): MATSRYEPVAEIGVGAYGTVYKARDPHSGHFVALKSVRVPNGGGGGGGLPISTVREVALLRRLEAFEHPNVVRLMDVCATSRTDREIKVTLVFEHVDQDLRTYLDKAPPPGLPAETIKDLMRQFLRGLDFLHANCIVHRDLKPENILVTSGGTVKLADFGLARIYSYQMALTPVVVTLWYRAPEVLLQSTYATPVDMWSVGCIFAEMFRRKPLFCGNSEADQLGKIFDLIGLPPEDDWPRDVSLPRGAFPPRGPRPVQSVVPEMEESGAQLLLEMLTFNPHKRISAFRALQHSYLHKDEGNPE
human CDK4 and genetically truncated (1-264) cyclin D3, sequence (P30281 1-264 partner): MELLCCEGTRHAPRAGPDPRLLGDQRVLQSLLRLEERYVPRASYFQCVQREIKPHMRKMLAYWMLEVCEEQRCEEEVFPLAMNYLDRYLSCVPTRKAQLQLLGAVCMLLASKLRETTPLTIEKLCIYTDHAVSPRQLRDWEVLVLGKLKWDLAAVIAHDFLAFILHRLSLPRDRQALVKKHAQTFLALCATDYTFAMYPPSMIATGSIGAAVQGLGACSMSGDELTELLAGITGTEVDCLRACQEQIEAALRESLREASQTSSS
How it was run: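 Apparent Ki values come from competitive or competitive tight-binding inhibition fits of background-corrected 32P/33P incorporation into His-tagged Rb fragment (386-928), captured on nitrocellulose. Reaction: 5 nM insect-cell-expressed human CDK4 with cyclin D3 (1-264), 25 μM ATP, pH 7.4 HEPES, 2% DMSO, 30° C., 20 min, extended to 60 min for tight-binding inhibitors.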

[3] = molecular target: CDK2/Cyclin A (Homo sapiens, UniProt P24941); experiment: Inhibition of CDK2/Cyclin A Retinoblastoma Kinase Activity; type: biochemical; details: for Ki: apparent Ki, CDK2/proteolyzed cyclin A, Rb fragment substrate, 25 μM ATP; for CDK2 % Inhibition At 0.03 μM: Table 2
How it was run: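 Radiometric filter-binding readout of phosphate transfer to an Rb substrate fragment by purified CDK2/truncated cyclin A at 10 or 19 nM. Run at pH 7.4 with 25 μM ATP, 30 °C, 60–75 min, linear rates; background without enzyme subtracted, Ki from competitive-inhibition models.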

[4] = 0.1 μM compound, HCT-116, Table 3
[5] = 0.1 μM compound, HCT-116, Table 4

C[C@@H]1CN(c2ccc(S(=O)(=O)N3CCC(Nc4nc(N)c(C(=O)c5c(F)cccc5F)s4)CC3)cn2)C[C@H](C)N1 [Example G15, 1-(4-Amino-2-{1-[6-(3,5-dimethyl-piperizin-1-yl)-pyridin-3-sulfonyl]-piperidin-4-ylamino}-thiazol-5-yl)-1-(2,6-difluoro-phenyl)-methanone Trifluoroacetic Acid Salt]
IC50 ([1]; first HCT-116 column (c4)): 79 nM
IC50 ([1]; second HCT-116 column (c5)): > 500 nM
Ki [2]: 0.28 nM
Ki [3]: 0.73 nM

COc1cc(NC(=O)N2CCC(Nc3nc(N)c(C(=O)c4c(F)cccc4F)s3)CC2)cc(OC)c1OC [Example O44]
HCT-116 % Inhibition at 0.25 μM ([1]; HCT-116, Table 2): 29%
CDK4 % Inhibition at 0.03 μM ([2]; 0.03 μM compound, Table 2): 12%
CDK2 % Inhibition At 0.03 μM ([3]; 0.03 μM compound): 22%

Nc1nc(NC2CCN(S(=O)(=O)c3ccc(O)c(C(=O)O)c3)CC2)sc1C(=O)c1c(F)cccc1F [Example P58]
HCT-116 % Inhibition at 0.1 μM [1, 4]: 14%
HCT-116 % Inhibition at 0.25 μM ([1]; HCT-116, Table 3): 30%
CDK4 % Inhibition at 0.03 μM ([2]; 0.03 μM compound, Table 3): 15%
CDK2 % Inhibition at 0.03 μM ([3]; 0.03 μM compound, Table 3): −16%

COc1ccccc1NC(=O)N1CCC(Nc2nc(N)c(C(=O)c3c(F)cccc3F)s2)CC1 [Example O7]
HCT-116 % Inhibition at 0.25 μM ([1]; HCT-116, Table 2): 43%
CDK4 % Inhibition at 0.03 μM ([2]; 0.03 μM compound, Table 2): 10%
CDK2 % Inhibition At 0.03 μM ([3]; 0.03 μM compound): 40%

Nc1nc(NC2CCN(C(=O)c3ccccc3Br)CC2)sc1C(=O)c1c(F)cccc1F [Example Q10]
HCT-116 % Inhibition at 0.1 μM [1, 5]: 1%
HCT-116 % Inhibition at 0.25 μM ([1]; HCT-116, Table 4): 42%
CDK4 % Inhibition at 0.03 μM ([2]; 0.03 μM compound, Table 4): 57%
CDK2 % Inhibition at 0.03 μM ([3]; 0.03 μM compound, Table 4): 23%

COC(=O)CC(=O)N1CCC(Nc2nc(N)c(C(=O)c3c(F)cccc3F)s2)CC1 [Example R2]
HCT-116 % Inhibition at 0.1 μM ([1]; HCT-116 cells, at 0.1 μM): 1%
HCT-116 5 Inhibition at 0.25 μM ([1]; HCT-116 cells): 49
CDK4 % Inhibition at 0.03 μM ([2]; at 0.03 μM): 13%
CDK2 % Inhibition at 0.03 μM ([3]; at 0.03 μM): −24%

Nc1nc(NC2CCN(C(=O)c3cc(Cl)cc(Cl)c3)CC2)sc1C(=O)c1c(F)cccc1F [Example R134]
HCT-116 % Inhibition at 0.1 μM ([1]; HCT-116 cells, at 0.1 μM): 45%
HCT-116 5 Inhibition at 0.25 μM ([1]; HCT-116 cells): 95
CDK4 % Inhibition at 0.03 μM ([2]; at 0.03 μM): 51%
CDK2 % Inhibition at 0.03 μM ([3]; at 0.03 μM): 29%

C=Cc1ccc(C(=O)N2CCC(Nc3nc(N)c(C(=O)c4c(F)cccc4F)s3)CC2)cc1 [Example R156]
HCT-116 % Inhibition at 0.1 μM ([1]; HCT-116 cells, at 0.1 μM): 0%
HCT-116 5 Inhibition at 0.25 μM ([1]; HCT-116 cells): 43
CDK4 % Inhibition at 0.03 μM ([2]; at 0.03 μM): 89%
CDK2 % Inhibition at 0.03 μM ([3]; at 0.03 μM): 65%

Nc1nc(NC2CCN(S(=O)(=O)CCNC3CCS(=O)(=O)C3)CC2)sc1C(=O)c1c(F)cccc1F (stereo not drawn) [Example K31, (4-Amino-2-{1-[2-(1,1-dioxo-tetrahydro-1-lamda-6-thiophen-3-ylamino)-ethanesulfonyl]-piperidin-4-ylamino}-thiazol-5-yl)-(2,6-difluoro-phenyl)-methanone Trifluoroacetic Acid Salt.]
IC50 ([1]; first HCT-116 column (c4)): > 5000 nM
IC50 ([1]; second HCT-116 column (c5)): > 5000 nM
Ki [2]: 4.3 nM
Ki [3]: 5.5 nM

CN(C)CCCc1ccc(S(=O)(=O)N2CCC(Nc3nc(N)c(C(=O)c4c(F)cccc4F)s3)CC2)cn1 [Example I12, 1-(4-Amino-2-{1-[6-(3-dimethylamino-propyl)-pyridine-3-sulfonyl]-piperidin-4-ylamino}-thiazol-5-yl)-1-(2,6-difluoro-phenyl)-methanone]
IC50 ([1]; first HCT-116 column (c4)): 300 nM
IC50 ([1]; second HCT-116 column (c5)): 3400 nM
Ki [2]: 1.1 nM
Ki [3]: 1.3 nM

Nc1nc(NC2CCN(S(=O)(=O)CCc3cccc4ccccc34)CC2)sc1C(=O)c1c(F)cccc1F [Example P76]
HCT-116 % Inhibition at 0.1 μM [1, 4]: 23%
CDK4 % Inhibition at 0.03 μM ([2]; 0.03 μM compound, Table 3): 33%
CDK2 % Inhibition at 0.03 μM ([3]; 0.03 μM compound, Table 3): 9%

Nc1nc(NC2CCN(S(=O)(=O)c3ccc(I)cc3)CC2)sc1C(=O)c1c(F)cccc1F [Example P16]
HCT-116 % Inhibition at 0.1 μM [1, 4]: 34%
HCT-116 % Inhibition at 0.25 μM ([1]; HCT-116, Table 3): 35%
CDK4 % Inhibition at 0.03 μM ([2]; 0.03 μM compound, Table 3): 67%
CDK2 % Inhibition at 0.03 μM ([3]; 0.03 μM compound, Table 3): 71%

Nc1nc(NC2CCN(C(=O)CC3CCCCC3)CC2)sc1C(=O)c1c(F)cccc1F [Example R100]
HCT-116 % Inhibition at 0.1 μM ([1]; HCT-116 cells, at 0.1 μM): 0%
HCT-116 5 Inhibition at 0.25 μM ([1]; HCT-116 cells): 49
CDK4 % Inhibition at 0.03 μM ([2]; at 0.03 μM): 10%
CDK2 % Inhibition at 0.03 μM ([3]; at 0.03 μM): −5%

Cc1ccc(NC(=O)N2CCC(Nc3nc(N)c(C(=O)c4c(F)cccc4F)s3)CC2)cc1C [Example O48]
HCT-116 % Inhibition at 0.25 μM ([1]; HCT-116, Table 2): 16%
CDK4 % Inhibition at 0.03 μM ([2]; 0.03 μM compound, Table 2): 11%
CDK2 % Inhibition At 0.03 μM ([3]; 0.03 μM compound): 28%

Nc1nc(NC2CCN(C(=O)c3c(F)cc(F)cc3F)CC2)sc1C(=O)c1c(F)cccc1F [Example R53]
HCT-116 % Inhibition at 0.1 μM ([1]; HCT-116 cells, at 0.1 μM): 0%
HCT-116 5 Inhibition at 0.25 μM ([1]; HCT-116 cells): 30
CDK4 % Inhibition at 0.03 μM ([2]; at 0.03 μM): 32%
CDK2 % Inhibition at 0.03 μM ([3]; at 0.03 μM): 24%

Nc1nc(NC2CCN(C(=O)c3cccc(C(F)(F)F)c3)CC2)sc1C(=O)c1c(F)cccc1F [Example Q24]
HCT-116 % Inhibition at 0.1 μM [1, 5]: 36%
HCT-116 % Inhibition at 0.25 μM ([1]; HCT-116, Table 4): 71%
CDK4 % Inhibition at 0.03 μM ([2]; 0.03 μM compound, Table 4): 65%
CDK2 % Inhibition at 0.03 μM ([3]; 0.03 μM compound, Table 4): 31%

Nc1nc(NC2CCN(C(=O)c3ccc(Cl)c(Cl)c3)CC2)sc1C(=O)c1c(F)cccc1F [Example Q20]
HCT-116 % Inhibition at 0.1 μM [1, 5]: 28%
HCT-116 % Inhibition at 0.25 μM ([1]; HCT-116, Table 4): 69%
CDK4 % Inhibition at 0.03 μM ([2]; 0.03 μM compound, Table 4): 74%
CDK2 % Inhibition at 0.03 μM ([3]; 0.03 μM compound, Table 4): 33%

Cc1onc(-c2c(Cl)cccc2Cl)c1C(=O)N1CCC(Nc2nc(N)c(C(=O)c3c(F)cccc3F)s2)CC1 [Example R26]
HCT-116 % Inhibition at 0.1 μM ([1]; HCT-116 cells, at 0.1 μM): 0%
HCT-116 5 Inhibition at 0.25 μM ([1]; HCT-116 cells): 46
CDK4 % Inhibition at 0.03 μM ([2]; at 0.03 μM): 64%
CDK2 % Inhibition at 0.03 μM ([3]; at 0.03 μM): 17%

COc1cc(Cl)ccc1C(=O)N1CCC(Nc2nc(N)c(C(=O)c3c(F)cccc3F)s2)CC1 [Example R145]
HCT-116 % Inhibition at 0.1 μM ([1]; HCT-116 cells, at 0.1 μM): 0%
HCT-116 5 Inhibition at 0.25 μM ([1]; HCT-116 cells): 38
CDK4 % Inhibition at 0.03 μM ([2]; at 0.03 μM): 53%
CDK2 % Inhibition at 0.03 μM ([3]; at 0.03 μM): 45%

Nc1nc(NC2CCN(C(=O)c3ccccc3)CC2)sc1C(=O)c1c(F)cccc1F [Example R103]
HCT-116 % Inhibition at 0.1 μM ([1]; HCT-116 cells, at 0.1 μM): 0%
HCT-116 5 Inhibition at 0.25 μM ([1]; HCT-116 cells): 45
CDK4 % Inhibition at 0.03 μM ([2]; at 0.03 μM): 18%
CDK2 % Inhibition at 0.03 μM ([3]; at 0.03 μM): 4%

Nc1nc(NC2CCN(S(=O)(=O)c3ccccc3F)CC2)sc1C(=O)c1c(F)cccc1F [Example P32]
HCT-116 % Inhibition at 0.1 μM [1, 4]: 13%
HCT-116 % Inhibition at 0.25 μM ([1]; HCT-116, Table 3): 28%
CDK4 % Inhibition at 0.03 μM ([2]; 0.03 μM compound, Table 3): 59%
CDK2 % Inhibition at 0.03 μM ([3]; 0.03 μM compound, Table 3): 58%

Nc1nc(NC2CCN(C(=O)c3sccc3Cl)CC2)sc1C(=O)c1c(F)cccc1F [Example C8, {4-Amino-2-[1-(3-chloro-thiophene-2-carbonyl)-piperidin-4-ylamino]-thiazol-5-yl}-(2,6-difluoro-phenyl)-methanone]
IC50 ([1]; first HCT-116 column (c4)): 460 nM
IC50 ([1]; second HCT-116 column (c5)): 1300 nM
Ki [2]: 41 nM
Ki [3]: 45 nM

Cc1cccc(CNCCS(=O)(=O)N2CCC(Nc3nc(N)c(C(=O)c4c(F)cccc4F)s3)CC2)c1 [Example K41, (4-Amino-2-{1-[2-(3-methyl-benzylamino)-ethanesulfonyl]-piperidin-4-ylamino}-thiazol-5-yl)-(2,6-difluoro-phenyl)-methanone]
IC50 ([1]; first HCT-116 column (c4)): 70 nM
IC50 ([1]; second HCT-116 column (c5)): 170 nM
Ki [2]: 1.9 nM
Ki [3]: 0.63 nM

Nc1nc(NC2CCN(S(=O)(=O)c3ccc(CCNc4ccccc4O)nc3)CC2)sc1C(=O)c1c(F)cccc1F [Example N1, [4-Amino-2-(1-{6-[2-(2-hydroxy-phenylamino)-ethyl]-pyridine-3-sulfonyl}-piperidin-4-ylamino)-thiazol-5-yl]-(2,6-difluoro-phenyl)-methanone Trifluoroacetic Acid Salt.]
IC50 ([1]; first HCT-116 column (c4)): 860 nM
IC50 ([1]; second HCT-116 column (c5)): 1600 nM
Ki [2]: 0.49 nM
Ki [3]: 0.28 nM

Nc1nc(NC2CCN(C(=O)C(c3ccccc3)c3ccccc3)CC2)sc1C(=O)c1c(F)cccc1F [Example R1]
HCT-116 % Inhibition at 0.1 μM ([1]; HCT-116 cells, at 0.1 μM): 0%
HCT-116 5 Inhibition at 0.25 μM ([1]; HCT-116 cells): 32
CDK4 % Inhibition at 0.03 μM ([2]; at 0.03 μM): 3%
CDK2 % Inhibition at 0.03 μM ([3]; at 0.03 μM): −34%
